From US9133158B2, “Bicyclic dihydroisoquinoline-1-one derivatives” (Hoffmann-La Roche Inc., priority 2011, dated 2015)

Assays:
human CYP11B2 = target: T1, human CYP11B2 (Homo sapiens, UniProt P19099); test: G-402 cellular enzyme assay, human CYP11B2 (aldosterone release, HTRF); format: cell-based; conditions: G-402 cells, 1 μM Deoxycorticosterone
T1 construct: expressed in transfected cells
T1 sequence (P19099 25-503): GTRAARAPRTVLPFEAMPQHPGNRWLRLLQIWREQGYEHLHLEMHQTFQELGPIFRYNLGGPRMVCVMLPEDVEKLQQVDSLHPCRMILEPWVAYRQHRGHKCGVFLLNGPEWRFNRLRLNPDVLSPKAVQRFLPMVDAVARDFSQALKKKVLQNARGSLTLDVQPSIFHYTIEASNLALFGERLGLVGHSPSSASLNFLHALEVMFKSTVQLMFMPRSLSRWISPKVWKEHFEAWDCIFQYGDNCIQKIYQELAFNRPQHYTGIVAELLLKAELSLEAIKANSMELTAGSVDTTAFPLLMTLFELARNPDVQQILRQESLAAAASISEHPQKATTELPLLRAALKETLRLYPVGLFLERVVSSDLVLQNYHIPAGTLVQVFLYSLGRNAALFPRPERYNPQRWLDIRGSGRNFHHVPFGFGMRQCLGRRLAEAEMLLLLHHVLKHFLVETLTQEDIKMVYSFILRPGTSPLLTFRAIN
Text: (§1) Herein we identified the use of the G-402 cell line as a host cell to ectopically express (transiently or stably) enzymes of the CYP11 family. Specifically we developed stable G-402 cells expressing ectopically human CYP11B1, human CYP11B2, human CYP11A1, cynmolgus CYP11B1 or cynomolgus CYP11B2 enzyme activity. Importantly the identified cell line G-402 expresses co-factors (adrenodoxin and adrenodoxin reductase) important for the activity of the CYP11 family and no relevant enzyme activity of the CYP11 family (in comparison to H295R cells) was detected in these cells. Therefore the G-402 cell line is uniquely suited as a host cell for the ectopic expression of enzymes from the CYP11 family.
(§2) G-402 cells can be obtained from ATCC(CRL-1440) and were originally derived from a renal leiomyoblastoma.
(§3) The expression plasmids contain the ORF for either human/cyno CYP11B1 or CYP11B2 under the control of a suitable promoter (CMV-promoter) and a suitable resistance marker (neomycin). Using standard techniques the expression plasmid is transfected into G-402 cells and these cells are then selected for expressing the given resistance markers. Individual cell-clones are then selected and assessed for displaying the desired enzymatic activity using 11-Deoxycorticosterone (Cyp11B2) or 11-Deoxycortisol (Cyp11B1) as a substrate.
(§4) G-402 cells expressing CYP11 constructs were established as described above and maintained in McCoy's 5a Medium Modified, ATCC Catalog No. 30-2007 containing 10% FCS and 400 μg/ml G418 (Geneticin) at 37° C. under an atmosphere of 5% CO2/95% air.
(§5) Cellular enzyme assays were performed in DMEM/F12 medium containing 2.5% charcoal treated FCS and appropriate concentration of substrate (0.3-10 uM 11-Deoxycorticosterone, 11-Deoxycortisol or Corticosterone). For assaying enzymatic activity, cells were plated onto 96 well plates and incubated for 16 h. An aliquot of the supernatant is then transferred and analyzed for the concentration of the expected product (Aldosterone for CYP11B2; Cortisol for CYP11B1). The concentrations of these steroids can be determined using HTRF assays from CisBio analyzing either Aldosterone or Cortisol.
(§6) Inhibition of the release of produced steroids can be used as a measure of the respective enzyme inhibition by test compounds added during the cellular enzyme assay. The dose dependent inhibition of enzymatic activity by a compound is calculated by means of plotting added inhibitor concentrations (x-axes) vs. measured steroid/product level (y-axes). The inhibition is then calculated by fitting the following 4-parameter sigmoidal function (Morgan-Mercer-Flodin (MMF) model) to the raw data points using the least squares method:
(§7) [formula] wherein, A is the maximum y value, B is the EC50 factor determined using XLFit, C is the minimum y value and D is the slope value.
(§8) EC50 values for compounds claimed herein were tested with the G402-based assay system described. Cyp11B2 enzyme activity was tested in presence of 1 μM Deoxycorticosterone and variable amounts of inhibitors; Cyp11B1 enzyme activity was tested in presence of 1 μM Deoxycortisol and variable amounts of inhibitors.

human CYP11B1 = target: T2, human CYP11B1 (Homo sapiens, UniProt P15538); test: G-402 cellular enzyme assay, human CYP11B1 (cortisol release, HTRF); format: cell-based; conditions: G-402 cells, 1 μM Deoxycortisol
T2 construct: expressed in transfected cells
T2 sequence (P15538 25-503): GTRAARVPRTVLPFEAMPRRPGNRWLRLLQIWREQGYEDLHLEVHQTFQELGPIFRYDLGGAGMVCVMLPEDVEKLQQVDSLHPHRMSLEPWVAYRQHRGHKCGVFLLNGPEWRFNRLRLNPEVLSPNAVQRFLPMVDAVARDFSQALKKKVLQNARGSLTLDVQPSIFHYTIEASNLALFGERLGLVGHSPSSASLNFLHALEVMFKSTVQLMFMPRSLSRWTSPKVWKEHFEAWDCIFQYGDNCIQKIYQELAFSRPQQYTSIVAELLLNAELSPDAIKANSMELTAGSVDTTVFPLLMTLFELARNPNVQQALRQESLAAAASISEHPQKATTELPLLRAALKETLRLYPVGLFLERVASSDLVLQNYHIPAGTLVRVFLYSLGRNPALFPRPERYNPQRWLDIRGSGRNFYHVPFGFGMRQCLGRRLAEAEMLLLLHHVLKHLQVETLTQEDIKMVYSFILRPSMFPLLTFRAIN
Text: as §1, §2, §3, §4, §5, §6, §7, §8

Row | EC50 (human CYP11B2) | EC50 (human CYP11B1) | Structure (SMILES)
1 | 901 nM | 7270 nM | COc1cncc(N2CCc3c(ccc(Cl)c3F)C2=O)c1 [Example 99, 6-Chloro-5-fluoro-2-(5-methoxy-pyridin-3-yl)-3,4-dihydro-2H-isoquinolin-1-one]
2 | 3.5 nM | 60.4 nM | O=C1c2ccc(Cl)cc2CCN1c1cncc(CN2CCN(CCO)CC2)c1 [Example 165, 6-Chloro-2-{5-[4-(2-hydroxy-ethyl)-piperazin-1-ylmethyl]-pyridin-3-yl}-3,4-dihydro-2H-isoquinolin-1-one]
3 | 0.4 nM | 3 nM | Cn1cc(Cc2cncc(N3C(=O)c4ccc(Cl)cc4C3(C)C)c2)cn1 [Example 281, 5-Chloro-3,3-dimethyl-2-[5-(1-methyl-1H-pyrazol-4-ylmethyl)-pyridin-3-yl]-2,3-dihydro-isoindol-1-one]
4 | 70.7 nM | 794 nM | O=C1c2ccc(Cl)cc2CCN1c1cncc(OC(F)F)c1 [Example 60, 6-Chloro-2-(5-difluoromethoxy-pyridin-3-yl)-3,4-dihydro-2H-isoquinolin-1-one]
5 | 17.2 nM | 485 nM | COc1cncc(N2CCc3cc(Cl)c(F)cc3C2=O)c1 [Example 100, 6-Chloro-7-fluoro-2-(5-methoxy-pyridin-3-yl)-3,4-dihydro-2H-isoquinolin-1-one]
6 | 108 nM | 4280 nM | CC1(C)c2cc(Cl)ccc2C(=O)N1c1cccnc1 [Example 128, 5-Chloro-3,3-dimethyl-2-pyridin-3-yl-2,3-dihydro-isoindol-1-one]
7 | 31.7 nM | 1930 nM | CC1(C)c2cc(F)ccc2C(=O)N1c1cncc(CNS(C)(=O)=O)c1 [Example 403, N-[5-(6-Fluoro-1,1-dimethyl-3-oxo-1,3-dihydro-isoindol-2-yl)-pyridin-3-ylmethyl]-methane-sulfonamide]
8 | 843 nM | 4190 nM | O=C(Cc1cncc(N2CCc3cc(Cl)ccc3C2=O)c1)NCCO [Example 264, 2-[5-(6-Chloro-1-oxo-3,4-dihydro-4H-isoquinolin-2-yl)-pyridin-3-yl]-N-(2-hydroxy-ethyl)-acetamide]
9 | 5.2 nM | 38.1 nM | O=C1c2ccc(Cl)cc2CCN1c1cncc(CN2CCC(F)(F)C2)c1 [Example 169, 6-Chloro-2-[5-(3,3-difluoro-pyrrolidin-1-ylmethyl)-pyridin-3-yl]-3,4-dihydro-2H-isoquinolin-1-one]
10 | 58.6 nM | 507 nM | O=C1c2ccc(Cl)cc2CCN1c1cncc(C(O)C(F)(F)F)c1 (stereo not drawn) [Example 18, 6-Chloro-2-[5-(2,2,2-trifluoro-1-hydroxy-ethyl)-pyridin-3-yl]-3,4-dihydro-2H-isoquinolin-1-one]
11 | 265 nM | 3040 nM | O=C1c2ccc(Cl)cc2CCN1c1cncc2cccc([N+](=O)[O-])c12 [Example 286, 6-Chloro-5′-nitro-3,4-dihydro-[2,4′]biisoquinolinyl-1-one]
12 | 377 nM | 7770 nM | CC1Cc2cc(Cl)ccc2C(=O)N1c1cncc(CO)c1 (stereo not drawn) [Example 86, 6-Chloro-2-(5-hydroxymethyl-pyridin-3-yl)-3-methyl-3,4-dihydro-2H-isoquinolin-1-one]
13 | 102 nM | 546 nM | Cn1ncc(C#N)c1-c1cncc(N2CCc3cc(Cl)ccc3C2=O)c1 [Example 246, 5-[5-(6-Chloro-1-oxo-3,4-dihydro-1H-isoquinolin-2-yl)-pyridin-3-yl]-1-methyl-1H-pyrazole-4-carbonitrile]
14 | 295 nM | 11600 nM | CS(=O)(=O)NCc1cncc(N2CCc3cc(Cl)ccc3C2=O)c1 [Example 152, N-[5-(6-Chloro-1-oxo-3,4-dihydro-1H-isoquinolin-2-yl)-pyridin-3-ylmethyl]-methanesulfonamide]
15 |  | 2650 nM | O=C(Nc1cncc(N2CCc3cc(Cl)ccc3C2=O)c1)C1CC1 [Example 248, Cyclopropanecarboxylic acid [5-(6-chloro-1-oxo-3,4-dihydro-1H-isoquinolin-2-yl)-pyridin-3-yl]-amide]
16 | 401 nM |  | CCS(=O)(=O)NCc1cncc(N2CCc3cc(Cl)ccc3C2=O)c1 [Example 25, Ethanesulfonic acid [5-(6-chloro-1-oxo-3,4-dihydro-1H-isoquinolin-2-yl)-pyridin-3-ylmethyl]-amide]
17 | 295 nM |  | O=C(Nc1ccc(F)cc1)c1cncc(N2CCc3cc(Cl)ccc3C2=O)c1 [Example 45, 5-(6-Chloro-1-oxo-3,4-dihydro-1H-isoquinolin-2-yl)-N-(4-fluoro-phenyl)-nicotinamide]
18 | 722 nM |  | CC1c2ccc(Cl)cc2C(=O)N1c1cccnc1 (stereo not drawn) [Example 119, 6-Chloro-3-methyl-2-pyridin-3-yl-2,3-dihydro-isoindol-1-one]
19 | 893 nM |  | CCOc1ccc2c(n1)C(C)(C)N(c1cncc(CNc3cc[nH]n3)c1)C2=O [Example 385, 2-Ethoxy-7,7-dimethyl-6-{5-[(1H-pyrazol-3-ylamino)-methyl]-pyridin-3-yl}-6,7-dihydro-pyrrolo[3,4-b]pyridin-5-one]
20 | 2810 nM |  | CS(=O)(=O)NC1CCCc2c1cncc2N1CCc2cc(Cl)ccc2C1=O (single isomer, unassigned) [Example 324, N-((S or R)-6-Chloro-1-oxo-3,4,5′,6′,7′,8′-hexahydro-1H-[2,4′]biisoquinolinyl-8′-yl)-methanesulfonamide]
21 | 1540 nM |  | CC1(C)CN(c2cccnc2)C(=O)c2ccc(Cl)cc21 [Example 102, 6-Chloro-4,4-dimethyl-2-pyridin-3-yl-3,4-dihydro-2H-isoquinolin-1-one]
22 | 582 nM |  | O=C1c2ccc(Cl)cc2CCN1c1cncc(-c2ccc(Cl)c(Cl)c2)c1 [Example 241, 6-Chloro-2-[5-(3,4-dichloro-phenyl)-pyridin-3-yl]-3,4-dihydro-2H-isoquinolin-1-one]
23 | 1500 nM |  | O=C1c2ccc(Cl)cc2CCN1c1cncc(N2C(=O)CC[C@H]2CO)c1 [Example 50, 6-Chloro-2-[5-((S)-2-hydroxymethyl-5-oxo-pyrrolidin-1-yl)-pyridin-3-yl]-3,4-dihydro-2H-isoquinolin-1-one]
24 | 372 nM |  | CNC(=O)c1cncc(N2CCc3cc(Cl)ccc3C2=O)c1 [Example 43, 5-(6-Chloro-1-oxo-3,4-dihydro-1H-isoquinolin-2-yl)-N-methyl-nicotinamide]
25 | 2830 nM |  | COC(OC)c1ccncc1N1CCc2cc(Cl)ccc2C1=O [Example 61, 6-Chloro-2-(4-dimethoxymethyl-pyridin-3-yl)-3,4-dihydro-2H-isoquinolin-1-one]
